Assay results as given in PMC5563081, “Modulating Protein-Protein Interactions of the Mitotic Polo-like Kinases to Target Mutant KRAS” (Cell Chemical Biology, 2017).

Columns and labels:
[1] = Stability in mouse hepatocytes; assay type: in vitro ADME
[2] = tested on: HCT116 (KRAS G13D) xenografts; assay: Xenograft study, tumour volume; assay type: in vivo, mouse; conditions: for Group Mean at Day 15 (tumour volume): HCT116 xenograft, vehicle 778
Experimental: Male athymic mice were purchased from Harlan (UK) and acclimatised for 7 days prior to study commencement. Animals were housed in IVC cages (5 per cage) with individual mice identified by tail marking. All animals were allowed free access to a standard certified commercial diet and sanitised water during the study. The holding room was maintained under standard conditions: 20-24°C, 40-70% humidity and a 12h light/dark cycle. All experiments were performed under approved ethical and procedural guidelines.
(§1) Tumours were established by sub-cutaneous implantation of 2 x 10^6 HCT116 cells suspended in 50% Matrigel into the flanks of a cohort of mice. When a sufficient number of mice had developed tumours of approximately 100mm3, they were randomly assigned to three groups: Vehicle, 50mg/kg Poloppin-II or 200mg/kg Poloppin-II, with 10 mice per group. Mice were treated orally according to their treatment group once every three days. Tumour volume was measured three times per week with calipers. Body weight was measured three times per week. In addition to mice assigned to tumour volume efficacy arm of the study, 16 mice with established HCT116 xenografts were assigned to either Vehicle or 200mg/kg oral dosing groups, with 8 mice per group. 24 hours after a single dose, mice were euthanised, tumours removed, snap frozen and 30-50microgram of lysates were analysed by Western blotting on 4-12% Bis-Tris acrylamide gels, and transferred using the Invitrogen iBlot dry system. Phospho-Histone H3 was detected using Abcam antibody ab5176, beta-actin with Sigma antibody a5316. […] HRP was visualised with ECL-Plus (GE Healthcare).

[3] = Stability in human hepatocytes; assay type: in vitro ADME
[4] = Tolerability and body weight in the xenograft study; assay type: in vivo, mouse; conditions: 50 mg/kg oral, mice; no adverse health observations or recorded weight loss
Experimental: as §1

[5] = tested on: HCT116 BI 2536-Res. Clones; assay: Viability of BI 2536-resistant HCT116 clones; assay type: cell-based, human
Experimental: (§2) Viability is represented as percentage survival normalised to DMSO control. […] PCR reactions were carried out using Amplitaq Gold polymerase (Applied Biosystems N8080241) with a 25-cycle programme. […] Prepared samples were submitted for next generation sequencing using MiSeq Nano run with Nextera XT library preparation. Sequencing and subsequent bioinformatics were performed by Cambridge Genomic Services (University Of Cambridge).

HCT116 wt = assay: Viability of drug-sensitive parental HCT116 cells; assay type: cell-based; conditions: Homo sapiens, HCT-116, 72 h
Experimental: as §2

human cell lines = assay: Dose-dependent mitotic arrest (Figure 1F); assay type: cell-based
Experimental: Cells were plated at 10 000/well in 96-well plates and incubated overnight. The following day compound stocks in DMSO were diluted in medium then added to cells with a maximum final DMSO concentration on cells of 0.2%. Cells were incubated with compound for 24 h then fixed in 3.7% formaldeyde. Cells were permeabilised with 0.1% Triton X-100 then incubated with anti-phospho-histone H3 (Ser10) antibody (Abcam ab5176). The cells were washed with PBS then incubated with AlexaFluor 488 labelled goat anti-rabbit IgG (Invitrogen A11034) in the presence of 4ug/ml Hoechst 33342 (Invitrogen H3570). Cells were washed in PBS then imaged on an Arrayscan VTi HCS instrument (Thermo Fisher) using the Target Activation V4 Bioapplication. A user-defined threshold was applied to identify mitotic cells based on the intensity of phospho-histone H3 staining.

HCT116 KRAS G13D cells = assay: Development of drug resistance under continuous treatment; assay type: cell-based, human; conditions: continuous treatment at 5x GI50
Experimental: HCT116 wild-type cells (Horizon Discovery Ltd.) cultured in McCoy's 5A (Life Technologies #26600) medium supplemented with 10% Foetal Calf Serum (Life Technologies #10270) were treated on three occasions with titrations of the PLK1 ATP-competitive inhibitor BI 2536 (Selleckchem #S1109) or Poloppin in order to determine the 2.5x GI50, 3x GI50 and 5x GI50 values for each compound required to initiate the development of resistance. Cells were subsequently treated with 2.5x GI50, 3x GI50 and 5x GI50 concentrations of either compound, changing media and compound every three to four days until resistant colonies emerged or no viable cells remained. Single cell clones were isolated from cells resistant to 5x GI50 BI 2536. Equivalent experiments using 3x GI50 or 2.5x GI50 doses of Poloppin or BI2536 yielded identical results (data not shown). BI 2536-resistant clones (HCT116 BI 2536-Res. Clones) were treated with BI2536 or Poloppin, alongside drug-sensitive parental HCT116 cells (HCT116 wt), and viability was assessed after 72 h. Viability is represented as percentage survival normalised to DMSO control. […]

Compound	half-life [1]	hepatocyte CLint [1]	growth of xenografted tumors ([2]; 50 mg/kg oral, HCT116 KRAS G13D)	Group Mean at Day 15 (tumour volume) ([2]; 50mg/kg oral every three days)	Group Mean at Day 15 (tumour volume) ([2]; 200mg/kg oral, treatment suspended after seven days)	half-life [3]	hepatocyte CLint [3]	tolerability during the study [4]	GI50 ([5]; BI2536-Res. (Mean), 72 h)	GI50 ([5]; Homo sapiens, HCT-116, 72 h)	GI50 (HCT116 wt)	EC50 (human cell lines)	acquisition of drug resistance (HCT116 KRAS G13D cells)
CN(C)CCNC(=O)c1ccc(-c2ccc(-c3ccc(Cl)cc3)n2-c2ccccc2C(F)(F)F)cc1 [Poloppin-II]	1.28 h	18 µL/min/1e6 cells	reduced the growth of xenografted tumors	415 mm³	371 mm³	2.27 h	10 µL/min/1e6 cells	well tolerated	–	–	–	–	–
O=C(O)CCc1ccc(-c2ccc(Br)cc2)n1-c1ccccc1C(F)(F)F [Poloppin]	–	–	–	–	–	–	–	–	retain sensitivity	7.7 µM	11.1 µM	29.9 ± 1.12 µM	undetectable
